In patent publication US11787839B2, “Targeting α2δ-1-bound glutamate receptors for treating diseases and disorders” (Board of Regents, The University of Texas System, priority 2017, dated 2023):

What was measured:
paclitaxel-treated rats = test: Paclitaxel-induced pain hypersensitivity in rats; assay type: in vivo, rat; settings: intrathecal 5 μg pregabalin, 1 μg peptides
Experimental: To induce neuropathic pain, rats and mice were intraperitoneally injected with paclitaxel (2 mg/kg; TEVA Pharmaceuticals, North Wales, Pa.) every 2 days for a total of 4 injections (days 1, 3, 5 and 7; total dose, 8 mg/kg), as described previously (Polomano et al., 2001). Animals in the control group were intraperitoneally injected with the vehicle (Cremophor EL/ethanol, 1:1) on the same 4 days. The presence of tactile allodynia was confirmed 10 to 12 days after drug treatment. Intrathecal catheters were implanted in some paclitaxel-treated rats during isoflurane-induced anesthesia. Briefly, a small puncture was made in the atlanto-occipital membrane of the cisterna magna and inserted a PE-10 catheter with the caudal tip reaching the lumbar enlargement of the spinal cord (Chen et al., 2014a; Xie et al., 2016).
Behavioral assessment of nociception: To measure tactile allodynia, mice or rats were individually placed on a mesh floor within a suspended chamber. […]
To quantify the mechanical nociceptive threshold in rats, the paw pressure (Randall-Selitto) test was conducted on the left hindpaw using an analgesiometer (Ugo Basile, Varese, Italy). […] When the rat withdrew its paw or vocalized, the pedal was immediately released, and the withdrawal threshold was recorded (Chen et al., 2014a). […]
To assess the thermal sensitivity of rats, the were placed individually on the glass surface of a thermal testing apparatus (IITC Life Sciences, Woodland Hills, Calif.). […] The paw withdrawal latency was recorded with a timer, and the hindpaw was tested twice to obtain an average time. […] After the threshold temperature was recorded, the mice were immediately removed from the plate. The heat threshold measurement was repeated 30 min later, and the average of the 2 recorded temperatures was considered as the heat threshold. The cold threshold was measured by cooling the plate from 30° C. at a rate of 6° C./min until nocifensive behaviors were observed. […]

SNL rats = test: Withdrawal thresholds in spinal nerve ligation (SNL), sham and naive rats; assay type: in vivo, rat
Description: Animal models of neuropathic pain: All surgical preparations and experimental protocols were approved by the Animal Care and Use Committee of the University of Texas MD Anderson Cancer Center and conformed to the National Institutes of Health guidelines for the ethical use of animals. Male Sprague-Dawley rats (8-10 weeks of age) were purchased from Harlan Laboratories (Indianapolis, Ind.). L5 and L6 spinal nerve ligation (SNL) were used as an experimental model of neuropathic pain (Cole et al., 2005). In brief, anesthesia was induced with 2-3% isoflurane, isolated the left L5-L6 spinal nerves and ligated them tightly with 6-0 silk sutures. The rats in the sham control group underwent the same surgical procedures except for the nerve ligation.
Intrathecal catheters were implanted in some SNL group rats during isoflurane-induced anesthesia 2-3 weeks after SNL surgery. Briefly, the anesthetized animal was placed on a stereotaxic frame, and a small incision was made at the back of its neck. Then, a small puncture was made in the atlanto-occipital membrane of the cisterna magna, and a PE-10 catheter (˜8 cm) was inserted with the caudal tip reaching the lumbar enlargement of the spinal cord (Luo et al., 2001; Patel et al., 2013). The rostral end of the catheter was exteriorized and closed the wound with sutures. The animals were allowed to recover for at least 4 days before the intrathecal injections were performed. Animals displaying signs of motor or neurological dysfunction were immediately killed with an intraperitoneal injection of phenobarbital (200 mg/kg) or by inhalation of CO2.
Behavioral assessments of nociception: To detect tactile allodynia, von Frey filaments were applied to the animals' left hindpaws (ipsilateral to the nerve injury). The rats or mice were placed individually in suspended chambers on a mesh floor. After an acclimation period of 30 min, a series of calibrated von Frey filaments were applied (Stoelting, Wood Dale, Ill.) perpendicularly to the plantar surface of the hindpaw with sufficient force to bend the filament for 6 s. Brisk withdrawal or paw flinching was considered a positive response. After a response, the filament of the next lower force was applied. In the absence of a response, the filament of the next greater force was applied. Using the up-down method, the tactile stimulus that produced a 50% likelihood of a withdrawal response was calculated (Fuller-Bicer et al., 2009).
To quantify the mechanical nociceptive threshold in the rats and mice (Patel et al., 2013; Dolphin et al., 2012), the paw pressure tests were conducted on the hindpaw with an analgesiometer (Ugo Basile, Varese, Italy). The device was activated by pressing a foot pedal, which triggered a motor that applied a constantly increasing force on a linear scale. […]

[1] = biological target: T1, NMDARs of hippocampal CA1 pyramidal neurons (Mus musculus, UniProt O08532+P35438); test: Puff NMDAR currents of hippocampal CA1 neurons, oxygen-glucose deprivation (OGD); assay type: cell-based; settings: gabapentin 30 or 100 μM, 60 min
T1 construct: from tissue; host or cells: mouse brain slices (hippocampal CA1, hypothalamic PVN, brain tissue membrane extracts)
Experimental: Brain slice preparation and recording. The tissues containing the hippocampus were sliced sagittally (300 μm thick) using a vibratome. […] NMDAR currents of pyramidal neurons in the hippocampal CA1 region were recorded by puff application of 100 μM NMDA directly to the recorded neuron at a holding potential of −60 mV.

T1 sequence (O08532 25-956 limits assumed, other chains not shown): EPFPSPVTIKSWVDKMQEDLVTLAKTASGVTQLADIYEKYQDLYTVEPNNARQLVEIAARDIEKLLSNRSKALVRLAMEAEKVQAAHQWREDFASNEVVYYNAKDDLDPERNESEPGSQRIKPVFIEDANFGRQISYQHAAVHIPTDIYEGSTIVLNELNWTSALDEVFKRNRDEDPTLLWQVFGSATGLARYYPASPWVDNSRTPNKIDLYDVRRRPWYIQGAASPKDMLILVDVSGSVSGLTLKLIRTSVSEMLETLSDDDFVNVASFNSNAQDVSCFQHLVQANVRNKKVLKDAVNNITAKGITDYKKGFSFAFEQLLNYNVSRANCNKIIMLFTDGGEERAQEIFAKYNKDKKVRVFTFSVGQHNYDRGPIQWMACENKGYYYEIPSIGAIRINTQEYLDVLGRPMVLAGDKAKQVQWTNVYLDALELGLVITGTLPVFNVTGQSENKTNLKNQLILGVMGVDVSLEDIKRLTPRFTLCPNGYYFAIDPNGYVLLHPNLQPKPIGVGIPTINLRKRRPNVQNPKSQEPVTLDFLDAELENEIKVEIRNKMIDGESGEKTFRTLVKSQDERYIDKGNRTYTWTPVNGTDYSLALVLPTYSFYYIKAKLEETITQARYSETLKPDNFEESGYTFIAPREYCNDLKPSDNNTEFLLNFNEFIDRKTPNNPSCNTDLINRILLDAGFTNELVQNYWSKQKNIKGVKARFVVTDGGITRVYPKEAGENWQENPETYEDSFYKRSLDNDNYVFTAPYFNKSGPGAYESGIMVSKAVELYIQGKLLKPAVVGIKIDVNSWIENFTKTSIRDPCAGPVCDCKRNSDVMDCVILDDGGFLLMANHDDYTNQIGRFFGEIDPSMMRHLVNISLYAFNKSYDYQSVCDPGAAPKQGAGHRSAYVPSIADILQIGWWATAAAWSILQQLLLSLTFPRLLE

In the case of “YGRKKRRQRRRVSGLNPSLWSIFGLQFILLWLVSGSRHYLW (a2d1 peptide) [α2δ-1Tat peptide, 30-amino-acid peptide mimicking the C-terminal domain of α2δ-1 fused to the cell-penetrating peptide Tat]”, the “paclitaxel-induced pain hypersensitivity (tactile allodynia, mechanical and thermal hyperalgesia)” value (paclitaxel-treated rats) is reported as “markedly attenuated”, the “pain hypersensitivity of SNL rats” value (SNL rats; SNL rats, peptides intrathecal or systemic, siRNA intrathecal) is reported as “large reduction” and the “withdrawal thresholds in sham control rats” value (SNL rats; sham control rats) is reported as “had no effect”. The “OGD-induced increase in the puff NMDAR currents” value ([1]; 5 min OGD, peptides 1 μM) was “failed to increase” and the “basal puff NMDAR currents of hippocampal CA1 pyramidal neurons” value ([1]; before OGD, peptide 1 μM) was “had no effect”.
